In patent US20230203060A1 (GENFLEET THERAPEUTICS (SHANGHAI) INC., priority 2020, published 2023):
pIC50: −log10 of the molar value. Like-named read-outs stand apart in the source and are kept apart here.

Key:
[1] = test system: KRAS G12C mutant NCI-H358 cells; test: Cell proliferation inhibition experiment, 3D spheroid, CellTiter-Glo, NCI-H358; assay type: cell-based, human; details: NCI-H358 (KRAS G12C mutant) 3D spheroid, 5 days with compound, CellTiter-Glo, read-out: H358 IC50
In short: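 Cells seeded in 2% FBS medium in spheroid plates (800 H358 or 400 A549 per well), grown overnight to form 3D spheroids, then exposed to 3.16-fold compound dilutions (0.1% DMSO) for 5 days. CellTiter-Glo luminescence gave inhibition vs DMSO and medium blanks; IC50 by four-parameter fit.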

[2] = target: T1, KRAS G12C (Homo sapiens, UniProt P01116, G12C); test: KRAS G12C NEA-HTRF experiment (SOS1-catalyzed displacement of GDP by GTP); assay type: biochemical
T1 construct: purchased Reactionbiology
T1 sequence (P01116 1-188 isoform P01116-2 G12C): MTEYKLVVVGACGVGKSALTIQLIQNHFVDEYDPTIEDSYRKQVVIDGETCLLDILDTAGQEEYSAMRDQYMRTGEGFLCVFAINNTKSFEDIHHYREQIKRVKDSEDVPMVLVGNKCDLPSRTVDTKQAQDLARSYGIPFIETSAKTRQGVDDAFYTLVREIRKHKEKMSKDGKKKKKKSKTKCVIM
Excerpt: Raw materials and instruments: KRAS G12C (his-tag) purchased from Reactionbiology; batch number 3496; SOS1 purchased from Reactionbiology; batch number: 3501; GTP purchased from Sigma; article number: G8877; batch number: SLBV1450; Tris-HC1 purchased from Sigma; EDTA purchased from absin; article number: abs42017668; batch number: JE20; NaCl purchased from Sigma; article number: 55886; batch number: SLBW4193; MgCl2 purchased from Shyuanye; article number: R21455; batch number: L07S9G69806; HEPES purchased from Life Technologies; article number: 15630-080; batch number: 2037042; DTT purchased from Thermo Fisher; article number: R0862; batch number: 00608918; Triton X-100 purchased from Sigma; article number: T8787-100 ML; batch number: SLBW7103; DY647-labeled GDP purchased from Jena Bioscience; article number: NU-840-647P1; batch number: BM019-045; Anti-6H1S-Tb purchased from Cisbio; article number: 61H12TLA; batch number: 13A; Bradford Assay Kit purchased from Thermo Fisher; article number: 23246; batch number: UG287474; white opaque 96-well plate purchased from Cisbio; article number: 66PL96025; batch number: N°06; NAP-5 column purchased from GE Healthcare; article number: 17085301; batch number: 16995164; mircoplate reader purchased from PerkinElmer; model: Envision MLD2105-0020; equipment number 1050369. The effect of compounds on SOS1-catalyzed displacement of GDP by GTP on KRAS protein was examined using a homogeneous time-resolved fluorescence (HTRF) method. 30 μM 6×his-tagged KRAS G12C recombinant protein was incubated with 80 μM fluorescent dye DY647-labeled GDP in labeling buffer (1 mM DTT, 7.5 mM EDTA, 25 mM Tris-HCl, 45 mM NaCl) at 20° C. in the dark for 2 hours, purified using NAP-5 column, and then protein quantification was performed with Bradford Assay Kit after purification to determine the concentration of KRAS […] 3.16-fold gradient concentration stock solution of 1000× compound was prepared with DMSO, and diluted 250-fold to 4× compound stock solution with reaction buffer (40 mM HEPES, 10 mM MgCl2, 1 mM DTT, 0.002% Triton X-100). KRAS G12C-GDP/Tb working solution (40 nM KRAS […] Tb) and SOS1/GTP working solution (0.2 μM SOS1, 200 μM GTP) were prepared using the reaction buffer. A white opaque 96-well plate was taken, and 5 μL of 4× compound stock solution and 10 μL of KRAS G12C-GDP/Tb working solution were added to each well. 5 μL of reaction buffer instead of 4x compound stock solution was used in the control well. After incubation in the dark for 15 minutes at 20° C., 5μL of SOS1/GTP working solution was added thereto, and the fluorescence value (excitation wavelength: 320 nm, emission wavelength: 615 nm and 665 nm) was read after incubating at 20° C. in the dark for 2 hours. Another T0 group was set up with 10 μL reaction buffer+10 μL KRAS G12C-GDP/Tb working solution, and the fluorescence value was read directly by the microplate reader. The fluorescence signal ratio RLU=(665 nm signal/615 nm signal)×10^4; and the compound inhibition rate IR (%)=(RLUcompound-RLUcontrol)/(RLUT0-RLUcontrol)×100% were calculated. The IC50 value was calculated by fitting the gradient dilution concentration of compound and the corresponding inhibition rate with the four-parameter method. The NEA activity of the compounds prepared in the above embodiments of the present disclosure was 0.0001 μM to 1 μM; the inhibitory activity of some compounds on KRAS G12C mutant MIA PaCa-2 cells was 0.001 μM to 0.5 μM or 0.001 μM to 0.1 μM.

[3] = test system: KRAS G12C mutant MIA PaCa-2 cells; test: Cell proliferation inhibition experiment, 3D spheroid, CellTiter-Glo, MIA PaCa-2; assay type: cell-based, human; details: Homo sapiens, MIA PaCa-2, 120 h, 3D cell model in 384-well spheroid plate, 5 days, CellTiter-Glo; read-out: MIA-PaCa2 IC50
In short: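 200 MIA PaCa-2 cells/well grown overnight as 3D spheroids, then exposed to 3.16-fold compound dilutions (0.1% DMSO final) for 5 days. Viability read by CellTiter-Glo luminescence; inhibition calculated against DMSO and medium-only controls, and IC50 fitted by four-parameter model.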

SMILES	pIC50 ([1]; Homo sapiens, NCI-H358, 120 h)	pIC50 [2]	pIC50 [3]	pIC50 [1]
C=CC(=O)N1CCN2C(=O)c3c(N4C[C@@H](N(C)CCOC)CC4(C)C)nc(-c4ccccc4F)c(Cl)c3OC[C@H]2C1 (single isomer, unassigned) [Z406-2]	7.68	6.76		
C=CC(=O)N1CCN2C(=O)c3c(N4C[C@@H](O)[C@@H]4C)nc(-c4c(O)cccc4F)c(Cl)c3OC[C@H]2C1 (single isomer, unassigned) [Z102-1]	7.29	6.71		
C=CC(=O)N1CCN2C(=O)c3c(N4CC5CCC(=O)N5C[C@@H]4C)nc(-c4c(O)cccc4F)c(Cl)c3OC[C@H]2C1 (stereo partly drawn) [Z330-1, (6aR)-8-acryloyl-4-chloro-3-(2-fluoro-6-hydroxyphenyl)-1-((3S)-3-methyl-6-oxohexahydropyrrolo[1,2-c]pyrazin-2 (1H)-yl)-6,6a,7,8,9,10-hexahydro-12H-pyrazino[2,1-c]pyrido[3,4-f][1,4]oxazepin-12-one]		6.65		
C=CC(=O)N1CCN2C(=O)c3c(N4CCC[C@@]4(C)C(=O)NC)nc(-c4c(F)cccc4OC)c(Cl)c3OC[C@H]2C1 (single isomer, unassigned) [Z466-1]	7.31	6.12		
C=CC(=O)N1CCN2C(=O)c3c(N4CC(N5CC(OC)C5)CC4(C)C)nc(-c4ccccc4F)c(Cl)c3OC[C@H]2C1 (single isomer, unassigned) [Z479-2]	7.13	6.37		
C=CC(=O)N1CCN2C(=O)c3c(N4C[C@H](C(=O)O)CC4(C)C)nc(-c4c(O)cccc4F)c(Cl)c3OC[C@H]2C1 (single isomer, unassigned) [Z458-2]		6.60	< 6.00	
C=CC(=O)N1CCN2Cc3c(C(=O)N(C)C(C)C)nc(-c4ccccc4F)c(Cl)c3OC[C@H]2C1 [Z656, (R)-8-acryloyl-4-chloro-3-(2-fluorophenyl)-N-isopropyl-N-methyl-6a,7,8,9,10,12-hexahydro-6H-pyrazino[2,1-c]pyrido[3,4-f][1,4]oxazepine-1-carboxamide]		< 5.00		
C=CC(=O)N1CCN2C(=O)c3c(N4Cc5nncn5CC4C)nc(-c4c(O)cccc4F)c(Cl)c3OC[C@H]2C1 (stereo partly drawn) [Z277-1, (6aR)-8-acryloyl-4-chloro-3-(2-fluoro-6-hydroxyphenyl)-1-(6-methyl-5,6-dihydro-[1,2,4]triazolo [4,3-a]pyrazin-7(8H)-yl)-6,6a,7,8,9,10-hexahydro-12H-pyrazino[2,1-c]pyrido[3,4-f][1,4]oxazepin-12-one]		7.48		
C=CC(=O)N1CCN2C(=O)c3c(N4CC(N5CC(F)C5)CC4(C)C)nc(-c4ccccc4F)c(Cl)c3OC[C@H]2C1 (single isomer, unassigned) [Z480-2]	6.81	6.49		
C=CC(=O)N1CCN2C(=O)c3c(N4CCC[C@@]4(C)C(=O)NC)nc(-c4c(F)cccc4OC)c(Cl)c3OC[C@H]2C1 (single isomer, unassigned) [Z466-2]		6.42		7.42
C=CC(=O)N1CCN2C(=O)c3c(N4CCN(C)[C@H](C)[C@@H]4C)nc(-c4c(O)cccc4F)c(Cl)c3OC[C@H]2C1 (relative stereo) [Z465, (6aR)-8-acryloyl-4-chloro-3-(2-fluoro-6-hydroxyphenyl)-1-(cis-2,3,4-trimethylpiperazin-1-yl)-12-oxo-6,6a,7,8,9,10-hexahydro-12H-pyrazino[2,1-c]pyrido[3,4-f][1,4]oxazepin-12-one]		6.56		7.42
C=CC(=O)N1CCN2C(=O)c3c(N4CCN(C)[C@H](C)[C@@H]4C)nc(-c4ccccc4F)c(Cl)c3OC[C@H]2C1 (single isomer, unassigned) [Z465-2]		< 5.00		
C=CC(=O)N1CCN2C(=O)c3c(N4C[C@@H](C)O[C@H](C)C4)nc(-c4c(O)cccc4F)c(Cl)c3OC[C@H]2C1 [Z248-2, (6aR)-8-acryloyl-4-chloro-1-((2R,6R)-2,6-dimethylmorpholino)-3-(2-fluoro-6-hydroxyphenyl)-6,6a,7,8,9,10-hexahydro-12H-pyrazino[2,1-c]pyrido[3,4-f][1,4]oxazepin-12-one]	7.80	6.77		
C=CC(=O)N1CCN2C(=O)c3c(N4CCN(CCOC)C(C)(C)C4)nc(-c4ccccc4F)c(Cl)c3OCC2C1 (centres unmarked) [Z478, 8-acryloyl-4-chloro-3-(2-fluorophenyl)-1-(4-(2-methoxyethyl)-3,3-dimethylpiperazin-1-yl)-6,6a,7,8,9,10-hexahydro-12H-pyrazino[2,1-c]pyrido[3,4-f][1,4]oxazepin-12-one]	7.53	6.37		
C=CC(=O)N1CCN2C(=O)c3c(N4C[C@H](N5CCN(C)CC5)CC4(C)C)nc(-c4ccccc4F)c(F)c3OC[C@H]2C1 (single isomer, unassigned) [Z474-2]	7.20	6.23		
